Structure (SMILES)	melting point [°C]
O=S(=O)(c1ccc(Cl)cc1)C(c1ccccn1)c1cc(F)ccc1F (centres unmarked) [Example 135, 2-[[(4-Chlorophenyl)sulfonyl]-(2,5-difluorophenyl)methyl]pyridine]	171 to 172
Cc1ccc(C(c2cc(F)ccc2F)S(=O)(=O)c2ccc(Cl)cc2)nc1 (centres unmarked) [Example 137, 2-[[(4-Chlorophenyl)sulfonyl]-(2,5-difluorophenyl)methyl]-5-methylpyridine]	159 to 160
Cc1ccnc(C(c2cc(F)ccc2F)S(=O)(=O)c2ccc(Cl)cc2)c1 (centres unmarked) [Example 138, 2-[[(4-Chlorophenyl)sulfonyl]-(2,5-difluorophenyl)methyl]-4-methylpyridine]	116 to 117
COc1cccnc1C(c1cc(F)ccc1F)S(=O)(=O)c1ccc(Cl)cc1 (centres unmarked) [Example 139, 2-[[(4-Chlorophenyl)sulfonyl]-(2,5-difluorophenyl)methyl]-3-methoxypyridine]	184 to 185
C=CCOc1cccnc1C(c1cc(F)ccc1F)S(=O)(=O)c1ccc(Cl)cc1 (centres unmarked) [Example 140, 3-Allyloxy-2-[[(4-chlorophenyl)sulfonyl]-(2,5-difluorophenyl)methyl]pyridine]	119 to 120
Cn1c(Cl)cnc1C(c1cc(F)ccc1F)S(=O)(=O)c1ccc(Cl)cc1 (centres unmarked) [Example 151, 2-[[(4-Chlorophenyl)sulfonyl]-(2,5-difluorophenyl)methyl]-1-methyl-5-chloro-1H-imidazole]	179 to 180
O=S(=O)(c1ccc(Cl)cc1)C(c1nccs1)c1cc(F)ccc1F (centres unmarked) [Example 152, 2-[[(4-Chlorophenyl)sulfonyl]-(2,5-difluorophenyl)methyl]thiazole]	163 to 164
COc1ccc(-n2ccnc2C(c2cc(F)ccc2F)S(=O)(=O)c2ccc(Cl)cc2)cc1 (centres unmarked) [Example 153, 2-[[(4-Chlorophenyl)sulfonyl]-(2,5-difluorophenyl)methyl]-1-(4-methoxyphenyl)-1H-imidazole]	150 to 151
O=S(=O)(c1ccc(Cl)cc1)C1(c2nnnn2Cc2ccccc2)CCCCC1 [Example 195, 1-Benzyl-5-[1-(4-chlorobenzenesulfonyl)cyclohexyl]-1H-tetrazole]	154 to 155
O=S(=O)(c1ccc(Cl)cc1)C1(c2nnn(Cc3ccccc3)n2)CCCCC1 [Example 197, 2-Benzyl-5-[1-(4-chlorobenzenesulfonyl)cyclohexyl]-2H-tetrazole]	133 to 134
O=C(CC(c1cc(F)ccc1F)S(=O)(=O)c1ccc(Cl)cc1)N1CCCC1 (centres unmarked) [Example 198, 3-[(4-Chlorophenyl)sulfonyl]-3-(2,5-difluorophenyl)-1-(1-pyrrolildinyl)-1-propanone]	122 to 125
O=C(O)CCC(c1cc(F)ccc1F)S(=O)(=O)c1ccc(Cl)cc1 (centres unmarked) [Example 200, 4-[(4-Chlorophenyl)sulfonyl]-4-(2,5-difluorophenyl)butyric Acid]	157 to 158
O=C(CCC(c1cc(F)ccc1F)S(=O)(=O)c1ccc(Cl)cc1)N1CCCC1 (centres unmarked) [Example 201, 4-[(4-Chlorophenyl)sulfonyl]-4-(2,5-difluorophenyl)-1-(1-pyrrolildinyl)-1-butanone]	134 to 135
O=C(O)CCCC(c1cc(F)ccc1F)S(=O)(=O)c1ccc(Cl)cc1 (centres unmarked) [Example 202, 5-[(4-chlorophenyl)sulfonyl]-5-(2,5-difluorophenyl)-1-valeric Acid]	151 to 152
O=C(CCCC(c1cc(F)ccc1F)S(=O)(=O)c1ccc(Cl)cc1)N1CCCC1 (centres unmarked) [Example 203, 5-[(4-Chlorophenyl)sulfonyl]-5-(2,5-difluorophenyl)-1-(1-pyrrolildinyl)-1-pentanone]	125 to 126
O=C(CCCCC(c1cc(F)ccc1F)S(=O)(=O)c1ccc(Cl)cc1)N1CCCC1 (centres unmarked) [Example 204]	135 to 136
O=C(O)CCCCCC(c1cc(F)ccc1F)S(=O)(=O)c1ccc(Cl)cc1 (centres unmarked) [Example 205, 7-[(4-Chlorophenyl)sulfonyl]-7-(2,5-difluorophenyl)heptanoic Acid]	72 to 76
